Laboratory results: PubChem BioAssay (NCI)
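Assay format: 96-well plates, 48-hour exposure. The concentration for 50% growth inhibition is given as GI50. TGI: total growth inhibition.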

What was measured:
Test in all cases: NCI tumour cell line growth inhibition, 48 h
EKVX NSCLC = system: EKVX NSCLC
K-562 leukemia = system: K-562 leukemia
MALME-3M melanoma = system: MALME-3M melanoma
SK-MEL-5 melanoma = system: SK-MEL-5 melanoma
NCI-H226 lung = system: NCI-H226 lung
OVCAR-5 ovarian = system: OVCAR-5 ovarian
CAKI-1 renal = system: CAKI-1 renal
SNB-75 CNS = system: SNB-75 CNS
HCC-2998 colon = system: HCC-2998 colon
786-0 renal = system: 786-0 renal
A498 renal = system: A498 renal
SF-268 CNS = system: SF-268 CNS
KM12 colon = system: KM12 colon
A549 NSCLC = system: A549 NSCLC
NCI/ADR-RES ovarian = system: NCI/ADR-RES ovarian
RPMI-8226 leukemia = system: RPMI-8226 leukemia
SR leukemia = system: SR leukemia
MCF7 breast = system: MCF7 breast
PC-3 prostate = system: PC-3 prostate
RXF 393 renal = system: RXF 393 renal
MDA-MB-435 = system: MDA-MB-435
SF-539 CNS = system: SF-539 CNS
IGROV1 ovarian = system: IGROV1 ovarian
BT-549 breast = system: BT-549 breast
SK-OV-3 ovarian = system: SK-OV-3 ovarian
CCRF-CEM leukemia = system: CCRF-CEM leukemia
MDA-MB-231 breast = system: MDA-MB-231 breast
NCI-H23 lung = system: NCI-H23 lung
SK-MEL-28 melanoma = system: SK-MEL-28 melanoma
UO-31 renal = system: UO-31 renal
NCI-H460 lung = system: NCI-H460 lung
HL-60(TB) leukemia = system: HL-60(TB) leukemia
M14 melanoma = system: M14 melanoma
SNB-19 CNS = system: SNB-19 CNS
HOP-62 NSCLC = system: HOP-62 NSCLC
SW-620 colon = system: SW-620 colon
HCT-116 colon = system: HCT-116 colon
U251 CNS = system: U251 CNS
UACC-62 melanoma = system: UACC-62 melanoma
COLO 205 colon = system: COLO 205 colon
OVCAR-3 ovarian = system: OVCAR-3 ovarian
SK-MEL-2 melanoma = system: SK-MEL-2 melanoma
HS 578T breast = system: HS 578T breast
UACC-257 melanoma = system: UACC-257 melanoma
OVCAR-4 ovarian = system: OVCAR-4 ovarian
HT29 colon = system: HT29 colon
HOP-92 NSCLC = system: HOP-92 NSCLC
DU-145 prostate = system: DU-145 prostate
OVCAR-8 ovarian = system: OVCAR-8 ovarian
HCT-15 colon = system: HCT-15 colon
LOX IMVI melanoma = system: LOX IMVI melanoma
TK-10 renal = system: TK-10 renal
SF-295 CNS = system: SF-295 CNS
MOLT-4 leukemia = system: MOLT-4 leukemia
NCI-H522 lung = system: NCI-H522 lung
ACHN renal = system: ACHN renal
SN12C renal = system: SN12C renal
T-47D breast = system: T-47D breast

Q: Which results are given for `O=C(c1cccs1)c1c(C(F)(F)F)n([O-])c2ccc(Cl)cc2[n+]1=O`?
A: GI50 (EKVX NSCLC): 185 nM; TGI (EKVX NSCLC): 523 nM; GI50 (K-562 leukemia): 115 nM; TGI (K-562 leukemia): 2620 nM; GI50 (MALME-3M melanoma): 6360 nM; TGI (MALME-3M melanoma): 13900 nM; GI50 (SK-MEL-5 melanoma): 541 nM; TGI (SK-MEL-5 melanoma): 2540 nM; GI50 (NCI-H226 lung): 398 nM; TGI (NCI-H226 lung): 2360 nM; GI50 (OVCAR-5 ovarian): 2020 nM; TGI (OVCAR-5 ovarian): 9680 nM; GI50 (CAKI-1 renal): 128 nM; TGI (CAKI-1 renal): 671 nM; GI50 (SNB-75 CNS): 2760 nM; TGI (SNB-75 CNS): > 50000 nM; GI50 (HCC-2998 colon): 735 nM; TGI (HCC-2998 colon): 1430 nM; GI50 (786-0 renal): 36.2 nM; TGI (786-0 renal): 69 nM; GI50 (A498 renal): 10800 nM; TGI (A498 renal): 18500 nM; GI50 (SF-268 CNS): 434 nM; TGI (SF-268 CNS): 1360 nM; GI50 (KM12 colon): 111 nM; TGI (KM12 colon): 302 nM; GI50 (A549 NSCLC): 168 nM; TGI (A549 NSCLC): 730 nM; GI50 (NCI/ADR-RES ovarian): 1750 nM; TGI (NCI/ADR-RES ovarian): 6240 nM; GI50 (RPMI-8226 leukemia): 5 nM; TGI (RPMI-8226 leukemia): 16.3 nM; GI50 (SR leukemia): 154 nM; TGI (SR leukemia): 621 nM; GI50 (MCF7 breast): 94.2 nM; TGI (MCF7 breast): 2480 nM; GI50 (PC-3 prostate): 97.2 nM; TGI (PC-3 prostate): 339 nM; GI50 (RXF 393 renal): 2090 nM; TGI (RXF 393 renal): 11700 nM; GI50 (MDA-MB-435): 289 nM; TGI (MDA-MB-435): 2020 nM; GI50 (SF-539 CNS): 282 nM; TGI (SF-539 CNS): 568 nM; GI50 (IGROV1 ovarian): 56.3 nM; TGI (IGROV1 ovarian): 1650 nM; GI50 (BT-549 breast): 289 nM; TGI (BT-549 breast): 655 nM; GI50 (SK-OV-3 ovarian): 7810 nM; TGI (SK-OV-3 ovarian): 20100 nM; GI50 (CCRF-CEM leukemia): 93.3 nM; GI50 (MDA-MB-231 breast): 124 nM; TGI (MDA-MB-231 breast): 431 nM; GI50 (NCI-H23 lung): 454 nM; TGI (NCI-H23 lung): 2260 nM; GI50 (SK-MEL-28 melanoma): 9460 nM; TGI (SK-MEL-28 melanoma): > 50000 nM; GI50 (UO-31 renal): 185 nM; TGI (UO-31 renal): 745 nM; GI50 (NCI-H460 lung): 359 nM; TGI (NCI-H460 lung): > 24900 nM; GI50 (HL-60(TB) leukemia): 152 nM; TGI (HL-60(TB) leukemia): 1510 nM; GI50 (M14 melanoma): 322 nM; TGI (M14 melanoma): 1090 nM; GI50 (SNB-19 CNS): 1210 nM; TGI (SNB-19 CNS): > 14800 nM; GI50 (HOP-62 NSCLC): 64.9 nM; TGI (HOP-62 NSCLC): 146 nM; GI50 (SW-620 colon): 248 nM; TGI (SW-620 colon): 4680 nM; GI50 (HCT-116 colon): 46.5 nM; TGI (HCT-116 colon): 723 nM; GI50 (U251 CNS): 130 nM; TGI (U251 CNS): 586 nM; GI50 (UACC-62 melanoma): 212 nM; TGI (UACC-62 melanoma): 562 nM; GI50 (COLO 205 colon): 569 nM; TGI (COLO 205 colon): 10200 nM; GI50 (OVCAR-3 ovarian): 461 nM; TGI (OVCAR-3 ovarian): 2850 nM; GI50 (SK-MEL-2 melanoma): 912 nM; TGI (SK-MEL-2 melanoma): > 20800 nM; GI50 (HS 578T breast): 11400 nM; TGI (HS 578T breast): > 34000 nM; GI50 (UACC-257 melanoma): 614 nM; TGI (UACC-257 melanoma): 3360 nM; GI50 (OVCAR-4 ovarian): 2610 nM; TGI (OVCAR-4 ovarian): > 50000 nM; GI50 (HT29 colon): 1290 nM; TGI (HT29 colon): > 50000 nM; GI50 (HOP-92 NSCLC): 866 nM; TGI (HOP-92 NSCLC): 5680 nM; GI50 (DU-145 prostate): 311 nM; TGI (DU-145 prostate): 547 nM; GI50 (OVCAR-8 ovarian): 1260 nM; TGI (OVCAR-8 ovarian): > 20900 nM; GI50 (HCT-15 colon): 109 nM; TGI (HCT-15 colon): 359 nM; GI50 (LOX IMVI melanoma): 65.3 nM; TGI (LOX IMVI melanoma): 131 nM; GI50 (TK-10 renal): 106 nM; TGI (TK-10 renal): 333 nM; GI50 (SF-295 CNS): 149 nM; TGI (SF-295 CNS): 703 nM; GI50 (MOLT-4 leukemia): 28.9 nM; TGI (MOLT-4 leukemia): 340 nM; GI50 (NCI-H522 lung): 406 nM; TGI (NCI-H522 lung): 6070 nM; GI50 (ACHN renal): 16.7 nM; TGI (ACHN renal): 44.2 nM; GI50 (SN12C renal): 175 nM; TGI (SN12C renal): 572 nM; GI50 (T-47D breast): 505 nM
